Experimental data from patent US20250034135A1, “ANTI-APOPTOTIC PROTEIN BCL-2 INHIBITOR, PHARMACEUTICAL COMPOSITION AND USES THEREOF” (HANGZHOU HEALZEN THERAPEUTICS CO., LTD., priority 2021, published 2025).

These compounds were tested against BCL2 (Homo sapiens (Human), UniProt P10415) (assay: Molecular level activity test of anti-apoptotic protein BCL2 (HTRF, binding to Bim peptide)). Details: HTRF, binding of BCL2 to Bim peptide; read-out: BCL2 nM (inhibitory activity, IC50).
BCL2, sequence (P10415 whole entry): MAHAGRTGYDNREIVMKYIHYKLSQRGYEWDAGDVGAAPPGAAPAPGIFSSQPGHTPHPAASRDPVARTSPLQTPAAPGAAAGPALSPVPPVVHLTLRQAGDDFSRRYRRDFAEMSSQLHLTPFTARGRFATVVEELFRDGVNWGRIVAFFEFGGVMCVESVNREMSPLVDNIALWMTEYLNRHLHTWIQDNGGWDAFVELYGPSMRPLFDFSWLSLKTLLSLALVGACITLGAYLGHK
In short: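 HTRF binding of His-tagged recombinant BCL2 to biotin-tagged Bim peptide, compound in 2% DMSO. After 1 h reaction, anti-His and streptavidin-XL665 detection reagents were added and incubated 4 h at room temperature before reading.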
`CC(C)c1ccccc1[C@@H]1CCCN1C1CC2(CCN(c3ccc(C(=O)NS(=O)(=O)c4cc([N+](=O)[O-])c(NC[C@H]5CC[C@](C)(O)CC5)c5[nH]cnc45)c(Oc4cnc5[nH]cc(F)c5c4)c3)CC2)C1` [compound 011, 2-((3-fluoro-1H-pyrrolo[2,3-b]pyrid-5-yl)oxy)-N-((7-((((1r,4r)-4-hydroxy-4-methylcyclohexyl)methyl)amino)-6-nitro-1H-benzo[d]imidazol-4-yl)sulfonyl)-4-(2-((S)-2-(2-isopropylphenyl)pyrrolidin-1-yl)-7-azaspiro[3.5]non-7-yl)benzamide] was tested, and the IC50 was under 10 nM. `CC(C)c1ccccc1C1CN(C(C)C)CCN1C1CC2(CCN(c3ccc(C(=O)NS(=O)(=O)c4cc([N+](=O)[O-])c(NC[C@H]5CC[C@](C)(O)CC5)c5[nH]cnc45)c(Oc4cnc5[nH]ccc5c4)c3)CC2)C1` (stereo partly shown) [compound 041, 2-((1H-pyrrolo[2,3-b]pyrid-5-yl)oxy)-N-((7-((((1r,4r)-4-hydroxy-4-methylcyclohexyl)methyl)amino)-6-nitro-1H-benzo[d]imidazol-4-yl)sulfonyl)-4-(2-(4-isopropyl-2-(2-isopropylphenyl)piperazin-1-yl)-7-azaspiro[3.5]non-7-yl)benzamide] gave an IC50 of under 10 nM. `COc1ccc(CN2CCN(C3CC4(CCN(c5cc(Oc6cnc7[nH]ccc7c6)c(C(=O)NS(=O)(=O)c6cc([N+](=O)[O-])c(NCC7(F)CCOCC7)c7c6OCO7)cc5F)CC4)C3)[C@H](c3ccccc3C(C)C)C2)cn1` [compound 126] gave an IC50 of under 10 nM. In the case of `CC(C)c1ccccc1[C@@H]1CCCN1C1CC2(CCN(c3cc(N4CCOc5nc6[nH]ccc6cc54)c(C(=O)NS(=O)(=O)c4cc([N+](=O)[O-])c(NC[C@H]5CC[C@](C)(O)CC5)c5[nH]cnc45)cn3)CC2)C1` [compound 081, 4-(2,3-dihydropyrrolo[3′,2′:5,6]pyridino[2,3-b][1,4]oxazin-1 (6H)-yl)-N-((7-((((1r,4r)-4-hydroxy-4-methylcyclohexyl)methyl)amino)-6-nitro-1H-benzo[d]imidazol-4-yl)sulfonyl)-6-(2-((S)-2-(2-isopropylphenyl)pyrrolidin-1-yl)-7-azaspiro[3.5]non-7-yl) nicotinamide], the IC50 is reported as under 10 nM. `CC(C)c1ccccc1C1CN(C2CCOCC2)CCN1C1CC2(C1)CN(c1ccc(C(=O)NS(=O)(=O)c3cc([N+](=O)[O-])c(NCC4(F)CCN(C(C)C)CC4)c4[nH]cnc34)c(Oc3cnc4[nH]ccc4c3)c1)C2` (stereo not shown) [compound 044, 2-((1H-pyrrolo[2,3-b]pyrid-5-yl)oxy)-N-((7-(((4-fluoro-1-isopropylpiperid-4-yl)methyl)amino)-6-nitro-1H-benzo[d]imidazol-4-yl)sulfonyl)-4-(6-(2-(2-isopropylphenyl)-4-(tetrahydro-2H-pyran-4-yl)piperazin-1-yl)-2-azaspiro[3.3]hept-2-yl)benzamide] showed an IC50 of under 10 nM. `COc1ccc(CN2CCN(C3CC4(CCN(c5ccc(C(=O)NS(=O)(=O)c6cc([N+](=O)[O-])c(NCC7CCOCC7)c7[nH]cnc67)c(N6CCCOc7nc8[nH]ccc8cc76)c5)CC4)C3)C(c3ccccc3C(C)C)C2)cc1` (stereo not shown) [compound 092, 2-(3,4-dihydro-2H-pyrrolo[3′,2′:5,6]pyridino[2,3-b][1,4]oxazacyclohept-1 (7H)-yl)-4-(2-(2-(2-isopropylphenyl)-4-(4-methoxybenzyl)piperazin-1-yl)-7-azaspiro[3.5]non-7-yl)-N-((6-nitro-7-(((tetrahydro-2H-pyran-4-yl)methyl)amino)-1H benzo[d]imidazol-4-yl)sulfonyl)benzamide] was tested, and the IC50 was under 10 nM. `COc1ccc(CN2CCN(C3CC4(C3)CN(c3ccc(C(=O)NS(=O)(=O)c5cc([N+](=O)[O-])c(NC[C@H]6CC[C@](C)(O)CC6)c6[nH]cnc56)c(Oc5cnc6[nH]ccc6c5)c3)C4)C(c3ccccc3C(C)C)C2)cc1` (stereo partly shown) [compound 040, 2-((1H-pyrrolo[2,3-b]pyrid-5-yl)oxy)-N-((7-((((1r,4r)-4-hydroxy-4-methylcyclohexyl)methyl)amino)-6-nitro-1H-benzo[d]imidazol-4-yl)sulfonyl)-4-(6-(2-(2-isopropylphenyl)-4-(4-methoxybenzyl)piperazin-1-yl)-2-azaspiro[3.3]hept-2-yl)benzamide] gave an IC50 of under 10 nM.
